Measurements as given in ChEMBL document CHEMBL4834487, “Model studies towards prodrugs of the glutamine antagonist 6-diazo-5-oxo-l-norleucine (DON) containing a diazo precursor” (Bioorg Med Chem Lett, 2021).

Tests used:
[1] = Stability of the compound in DMSO measured within 12 hrs; format: physicochemical
[2] = Stability of compound in sodium acetate buffer at pH 4 assessed as parent compound remaining measured after 60 mins; format: physicochemical; conditions: read-out: Stabilty
[3] = Stability of compound in potassium phosphate buffer at pH 7.4 assessed as parent compound remaining measured after 30 mins; format: physicochemical; conditions: read-out: Stabilty
[4] = Metabolic stability in pig liver homogenate assessed as parent compound remaining measured after 30 mins; format: ADME, tissue-based, Sus scrofa; conditions: read-out: Stabilty
[5] = Metabolic stability in pig brain homogenate assessed as parent compound remaining measured after 30 mins; format: ADME, tissue-based, Sus scrofa; conditions: read-out: Stabilty
[6] = Drug metabolism in pig brain homogenate assessed as 6-Diazo-5-oxo-L-norleucin formation by ion chromatogram analysis; format: ADME, tissue-based, Sus scrofa
[7] = Drug metabolism in pig brain homogenate assessed as N-acetyl-6-Diazo-5-oxo-L-norleucin formation by ion chromatogram analysis; format: ADME, tissue-based, Sus scrofa
[8] = Stability of the compound in DMSO measured for 24 hrs; format: physicochemical

## CC(=O)NC(CCC(=O)CN(N=O)C(=O)OCc1ccccc1)C(=O)O (stereo not drawn)
[1]
  Stabilty: Unstable

## CC(=O)N[C@@H](CCC(=O)Cn1nnc2c(C(N)=O)ncn2c1=O)C(=O)O
[2]
  remaining at 1 h: > 95%
[3]
  remaining at 0.5 h: < 5%
[4]
  remaining at 0.5 h: < 5%
[5]
  remaining at 0.5 h: < 5%
[6]
  Drug metabolism: Metabolite_Notdetected
[7]
  Drug metabolism: Metabolite_Detected
[8]
  Stabilty: Stable
